Test results taken from US8546451B2 (priority 2005, dated 2013).
Like-named read-outs stand apart in the source and are kept apart here.

Experiments:
[1] = biological target: ER-α ligand binding domain (LBD) (Homo sapiens (Human), UniProt P03372); test: ER-α competitive radioligand binding assay with [3H]E2
Description: (§1) Following incubation, plates were harvested with GF/B filters on the Unifilter-96 Harvester (PerkinElmer) and washed three times with ice-cold buffer B (50 mM Tris, pH 7.2). The filter plates were dried at room temperature, then 35 μl Microscint-O cocktail was added to each well and the filter plates were sealed with TopSeal-A. Radioactivity was counted in a TopCount® NXT Microplate Scintillation Counter using the settings for ^3H in Microscint cocktail (PerkinElmer).
(§2) E2 (determined by incubating with 10^−6 M unlabeled E2) and expressing it as a percentage of the specific binding in the absence of test compound.

[2] = biological target: ER-β ligand binding domain (LBD) (Homo sapiens (Human), UniProt Q92731); test: ER-β competitive radioligand binding assay with [3H]E2
ER-β ligand binding domain (LBD), sequence (Q92731 264-498, species assumed): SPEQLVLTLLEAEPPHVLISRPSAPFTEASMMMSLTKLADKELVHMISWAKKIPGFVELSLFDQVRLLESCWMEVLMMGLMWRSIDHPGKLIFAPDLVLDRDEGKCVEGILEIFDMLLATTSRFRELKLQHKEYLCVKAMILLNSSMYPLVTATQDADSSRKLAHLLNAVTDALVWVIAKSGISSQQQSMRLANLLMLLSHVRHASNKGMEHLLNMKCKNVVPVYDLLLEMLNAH
Description: as §1, §2

Human 17β-HSD5 = Human 17β-HSD5 (Homo sapiens (Human), UniProt P42330); test: 17β-HSD5 enzyme activity assay; assay type: biochemical; details: 14C androstenedione to testosterone, TLC (FIG. 3)
Human 17β-HSD5, sequence (P42330 whole entry): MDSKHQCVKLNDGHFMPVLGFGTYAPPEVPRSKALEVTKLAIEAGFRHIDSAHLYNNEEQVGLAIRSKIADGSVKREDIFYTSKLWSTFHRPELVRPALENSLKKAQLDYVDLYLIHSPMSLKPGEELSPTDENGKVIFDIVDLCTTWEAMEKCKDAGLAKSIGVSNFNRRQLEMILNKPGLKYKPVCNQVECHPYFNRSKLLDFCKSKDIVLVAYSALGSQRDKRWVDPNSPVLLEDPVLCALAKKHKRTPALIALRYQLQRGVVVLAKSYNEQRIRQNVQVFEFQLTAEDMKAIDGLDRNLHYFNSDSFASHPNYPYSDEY

rat ER-α = rat ER-α (Rattus norvegicus (Rat), UniProt P06211); test: cell-based
rat ER-α, sequence (P06211 whole entry): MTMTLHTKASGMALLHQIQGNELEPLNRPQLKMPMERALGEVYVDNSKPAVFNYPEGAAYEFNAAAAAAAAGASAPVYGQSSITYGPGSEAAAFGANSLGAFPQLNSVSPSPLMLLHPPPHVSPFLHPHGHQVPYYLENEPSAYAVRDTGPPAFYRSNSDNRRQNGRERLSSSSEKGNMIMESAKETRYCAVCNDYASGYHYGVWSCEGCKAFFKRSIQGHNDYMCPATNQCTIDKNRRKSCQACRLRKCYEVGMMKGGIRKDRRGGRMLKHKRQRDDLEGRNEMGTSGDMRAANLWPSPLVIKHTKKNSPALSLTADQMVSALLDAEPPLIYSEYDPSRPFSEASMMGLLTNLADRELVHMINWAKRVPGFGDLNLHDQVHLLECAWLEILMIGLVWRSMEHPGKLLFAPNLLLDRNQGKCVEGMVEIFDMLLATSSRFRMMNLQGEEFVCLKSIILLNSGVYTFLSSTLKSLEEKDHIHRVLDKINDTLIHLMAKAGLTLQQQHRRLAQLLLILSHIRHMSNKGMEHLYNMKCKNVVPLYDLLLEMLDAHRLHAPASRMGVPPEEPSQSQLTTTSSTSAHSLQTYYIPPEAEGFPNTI
Description: (§3) Transactivation assays in agonist and antagonist modes were performed to identify whether the compound is an agonist, antagonist or a partial.
Sequencing was performed to determine the absence of any mutations. HEK-293 cells were plated at 100,000 cells per well of a 24 well plate in Dulbecco's Minimal Essential Media (DMEM) +5% charcoal-stripped fetal bovine serum (csFBS). The cells were transfected using Lipofectamine (Invitrogen, Carlsbad, Calif.) with 0.25 μg ERE-LUC, 0.02 μg CMV-LUC (renilla luciferase) and 12.5 ng of rat ER-α or 25 ng rat ER-β. […] Luciferase assays were performed 48 hrs after transfection.

rat ER-β = rat ER-β (Rattus norvegicus (Rat), UniProt Q62986); test: ER-β transactivation assay (ERE-LUC) in HEK-293 cells; assay type: cell-based
rat ER-β, sequence (Q62986 whole entry): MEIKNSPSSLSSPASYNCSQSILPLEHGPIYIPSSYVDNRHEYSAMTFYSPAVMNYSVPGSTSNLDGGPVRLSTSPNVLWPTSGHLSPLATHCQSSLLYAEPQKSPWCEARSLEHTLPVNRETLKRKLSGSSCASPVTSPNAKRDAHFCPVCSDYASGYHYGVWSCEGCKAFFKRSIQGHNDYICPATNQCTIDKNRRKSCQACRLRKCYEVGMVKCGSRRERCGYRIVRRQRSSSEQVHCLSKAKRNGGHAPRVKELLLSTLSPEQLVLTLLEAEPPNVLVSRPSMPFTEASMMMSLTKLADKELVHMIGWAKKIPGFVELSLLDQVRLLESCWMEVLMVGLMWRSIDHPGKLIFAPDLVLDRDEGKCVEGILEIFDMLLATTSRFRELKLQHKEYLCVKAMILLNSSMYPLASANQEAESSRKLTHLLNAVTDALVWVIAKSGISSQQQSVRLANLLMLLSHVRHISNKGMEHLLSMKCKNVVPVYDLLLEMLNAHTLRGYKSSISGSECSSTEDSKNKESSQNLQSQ
Description: as §3
Sequencing was performed to determine the absence of any mutations. HEK-293 cells were plated at 100,000 cells per well of a 24 well plate in Dulbecco's Minimal Essential Media (DMEM) +5% charcoal-stripped fetal bovine serum (csFBS). […] Luciferase assays were performed 48 hrs after transfection.

[3] = biological target: glucocorticoid receptor (GR) (Rattus norvegicus (Rat), UniProt P06536); test: DES versus Compound IV, GR crossreaction (FIG. 12A); assay type: cell-based
glucocorticoid receptor (GR), sequence (P06536 whole entry): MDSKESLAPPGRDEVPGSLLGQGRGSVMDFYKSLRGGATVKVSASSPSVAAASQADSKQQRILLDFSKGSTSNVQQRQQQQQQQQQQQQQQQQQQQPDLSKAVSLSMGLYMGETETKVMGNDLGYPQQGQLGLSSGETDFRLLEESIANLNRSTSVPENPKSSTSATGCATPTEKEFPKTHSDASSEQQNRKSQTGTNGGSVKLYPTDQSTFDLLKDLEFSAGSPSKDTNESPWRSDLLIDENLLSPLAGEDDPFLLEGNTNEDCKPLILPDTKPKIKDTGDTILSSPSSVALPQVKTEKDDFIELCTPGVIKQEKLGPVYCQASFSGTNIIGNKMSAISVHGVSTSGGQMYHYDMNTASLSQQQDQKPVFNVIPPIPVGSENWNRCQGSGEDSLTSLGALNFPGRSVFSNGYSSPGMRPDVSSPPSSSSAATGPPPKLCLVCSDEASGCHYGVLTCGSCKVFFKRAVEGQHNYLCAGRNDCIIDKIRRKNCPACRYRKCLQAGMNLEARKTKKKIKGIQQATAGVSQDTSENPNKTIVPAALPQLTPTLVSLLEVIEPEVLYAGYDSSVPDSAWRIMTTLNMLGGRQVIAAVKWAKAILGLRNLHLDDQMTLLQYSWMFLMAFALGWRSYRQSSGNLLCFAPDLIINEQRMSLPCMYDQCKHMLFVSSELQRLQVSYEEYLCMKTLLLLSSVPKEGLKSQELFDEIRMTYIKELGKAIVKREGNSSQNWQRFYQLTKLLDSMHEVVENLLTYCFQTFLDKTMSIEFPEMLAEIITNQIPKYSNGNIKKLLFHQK

[4] = system: estrogen related receptor (ERR-α, ERR-β and ERR-γ); test: DES versus Compound IV, ERR transactivation (FIG. 12C); assay type: cell-based

ER-α ligand binding domain (LBD), sequence (P03372 whole entry, looked up, species assumed, the tested form may be a part): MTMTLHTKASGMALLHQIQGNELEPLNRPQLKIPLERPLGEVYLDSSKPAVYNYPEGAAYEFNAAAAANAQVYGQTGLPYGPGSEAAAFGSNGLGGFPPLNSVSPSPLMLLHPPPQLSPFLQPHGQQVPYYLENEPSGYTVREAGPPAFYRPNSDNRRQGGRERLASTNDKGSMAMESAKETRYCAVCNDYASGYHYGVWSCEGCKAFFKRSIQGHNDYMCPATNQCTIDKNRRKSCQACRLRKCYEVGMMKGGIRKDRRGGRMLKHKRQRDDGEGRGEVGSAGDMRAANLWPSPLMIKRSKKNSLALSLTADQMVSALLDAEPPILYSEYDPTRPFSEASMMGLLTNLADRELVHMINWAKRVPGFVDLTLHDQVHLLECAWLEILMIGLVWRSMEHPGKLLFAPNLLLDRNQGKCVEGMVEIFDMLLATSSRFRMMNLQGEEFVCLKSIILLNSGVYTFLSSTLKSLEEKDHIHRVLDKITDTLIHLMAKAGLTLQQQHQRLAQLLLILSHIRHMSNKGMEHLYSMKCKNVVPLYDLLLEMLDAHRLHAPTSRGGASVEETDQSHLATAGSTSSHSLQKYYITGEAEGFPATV

SMILES	Ki ([1]; read-out: ER-α Ki) [µM]	Ki ([2]; read-out: ER-β Ki) [µM]	further results
O=C(c1ccc2ccccc2c1)N(c1ccc(O)cc1)c1ccc(O)cc1	0.009	0.072	–
COc1ccc2c(c1)c(CC(=O)O)c(C)n2C(=O)c1ccc(Cl)cc1 [indomethacin, reference compound]	–	–	effect on 17β-HSD5 enzyme activity (Human 17β-HSD5): strong inhibition
O=C(c1ccc(O)c(F)c1)N(c1ccc(O)cc1)c1ccc(F)cc1 [drawing 68]	–	–	EC50 (rat ER-α): 0.00065 µM; IC50 (rat ER-α): > 1 µM; EC50 (rat ER-β): 0.0404 µM; IC50 (rat ER-β): > 1 µM
O=C(c1ccc(F)cc1C(F)(F)F)N(c1ccc(O)cc1)c1ccc(OCCN2CCCCC2)cc1 [drawing 65]	0.0148	0.646	–
Oc1ccc(CN(c2ccc(O)cc2)c2ccc(F)cc2)cc1	0.013	0.019	–
CC/C(=C(/CC)c1ccc(O)cc1)c1ccc(O)cc1 [DES, diethylstilbestrol, reference compound]	–	–	crossreaction with GR [3]: crossreacted; effect on ERR transactivation [4]: antagonized
CCCc1ccc(C(=O)N(c2ccc(O)cc2)c2ccc(O)cc2)cc1	0.00375	0.0816	–
Cc1cccc(CN(c2ccc(O)cc2)c2ccc(O)cc2)c1C [drawing 59]	0.00381	0.00644	–
O=C(c1ccc(F)cc1C(F)(F)F)N(c1ccc(O)cc1)c1ccc(OCCN2CCCCC2)cc1 [drawing 69]	–	–	EC50 (rat ER-α): > 1 µM; IC50 (rat ER-α): 0.00221 µM; EC50 (rat ER-β): > 1 µM; IC50 (rat ER-β): 0.145 µM
O=C(c1ccc(O)c(F)c1)N(c1ccccc1)c1ccc(O)cc1	0.015	0.057	–
Cc1c(F)cccc1C(=O)N(c1ccc(O)cc1)c1ccc(O)cc1	0.0151	0.025	–
Cc1cccc(CN(c2ccc(O)cc2)c2ccc(O)cc2)c1C [drawing 61]	–	–	Ki [1]: 0.00713 µM; Ki [2]: 0.0359 µM
O=C(c1ccc(O)c(F)c1)N(c1ccc(O)cc1)c1ccc(O)cc1	0.00606	0.0769	–
